{"source": "patent US9089521B2", "about": "“Method for regulating production of hemoglobin beta chains” (priority 2001, dated 2015)", "key": {"[1]": {"system": "partially purified ferritin-protein from K562 nuclei", "test": "Competition gel-shift assay with labeled wt −164/−128 oligonucleotide", "format": "binding, human", "details": "for excess of unlabeled oligonucleotide needed for significant competition with labeled wt sequence: heated K562 nuclear extract protein, FIG. 4B/4C", "procedure": "Preparation of nuclear extracts. Each nuclear extract preparation was made from two liters of K562 cells (1×10^6 cells/ml) using the procedure of Dignam, Lebovitz, and Roeder (Dignam, J. D., Lebovitz, R. M. & Roeder, R. G. (1983) Nucleic Acids Res 11, 1475-89). Protein content of the extracts ranged from 3 to 6 mg/ml. Extracts enriched 80-90% in ferritin-like protein(s) were prepared by treating the crude extracts with proteinase K and/or heat at 75° C. (Atkinson, B. G., Dean, R. L., Tomlinson, J. & Blaker, T. W. (1989) Biochem Cell Biol 67, 52-7).\nGel mobility shift assays. Gel retardation assays (i.e., gel shifts) were used to determine DNA binding of the extract proteins to the Rsa I (95 bp) fragment and synthetic oligonucleotides (Berg et al., (1989) Nucleic Acids Res 17, 8833-52; Fried & Crothers (1981) Nucleic Acids Res 9, 6505-25). Each reaction contained 0.5-2 ng of DNA, 1.0-5.0 ug of extract protein, 1.0-5.0 ug of poly dI:poly dC, 100 mM KCl, and binding buffer (Berg et al., (1989) Nucleic Acids Res 17, 8833-52). Unlabeled competitor oligonucleotides ranged from 15- to 2000-fold molar excess and were included in the reaction mixture with the probe before adding protein. Gels used for retardation assays were 4%, 5%, or 6% acrylamide and the running buffer was low ionic strength TAE (Berg et al., (1989) Nucleic Acids Res 17, 8833-52).\nDefinition of the binding site with competition gel shifts. To further localize the binding of ferritin, the 37 bp oligonucleotide was mutated in different places, replacing six nucleotides at a time with all A's, all C's, or all G's, with complementary nucleotide replacements in the opposing strand (FIG. 4A). A competition gel shift assay was done with the partially purified protein from heated K562 nuclear extract, in which each of the unlabeled mutant oligos as well as the native sequence was competed against the 32-P-labeled native sequence for binding. All mutants competed for binding as well as the native sequence except those mutated in the −153/−148 region, i.e., mutated in the sequence CAGTGC [SEQ ID NO: 6] (e.g., FIG. 4D). […]"}, "acute sickle-cell crises": {"system": "acute sickle-cell crises", "details": "stated by The University of Maryland; cited from earlier work"}, "[2]": {"system": "endogenous ferritin-H gene expression in NT-2 (NTERA-2) stem cells", "test": "Western blot for ferritin-H in NT-2 cells", "format": "cell-based, human", "details": "Western blot after 8 days in the presence of compound vs DMSO-control, FIG. 21", "procedure": "Cell lines. Human NTERA-2 (NT-2) embryonal carcinoma stem cells (ATCC # CRL-1973) were cultured in DMEM medium with 10% FBS and antibiotics.\nWestern blots and quantification. Cell lysates (i.e., extracts of human NT-2 cells) were boiled for 3-5 minutes in SDS buffer, layered onto polyacrylamide gels and were run with SDS electrophoresis buffer at 90 volts for 30 minutes. Electrophoresed samples were then placed in 3% BSA buffer and transferred at 80 volts for 2 hours to blotting membranes. A blocking reaction was performed over night with blocking buffer from ECL advance kit (GE Healthcare Bio-Sciences, NJ), followed by incubation for 4 hours in BSA buffer with fluorescent secondary antibody (1:10000) and primary anti ferritin-H (anti-FtH) polyclonal antiserum (1:1000). Ferritin-H detection was achieved using the LI-COR apparatus to visualize the fuorescent bands and Odyssey software to quantify the stained bands of ferritin-H. Isolation and culture of human mononuclear cells and maturation of erythroid precursor cells are diagrammed in FIG. 22. Whole blood was obtained from pediatric sickle cell patients at the time of scheduled transfusion therapy under an approved IRB protocol. […]"}, "[3]": {"system": "erythroid precursor cells from pediatric sickle cell disease patients", "test": "HbS-to-HbF switching in two-phase culture, HPLC of hemoglobins and immuno-HbF fluorescence", "format": "cell-based, human", "details": "FIG. 23"}, "[4]": {"system": "distal promoter of the human β-globin gene (−222/−128)", "test": "Gel mobility shift assay with distal promoter restriction fragment", "format": "binding", "details": "gel retardation assay, FIG. 2a left side", "description": "Proteins and antibodies. Ferritins from human liver (enriched in L chains) and from human heart (enriched in H chains), human transferrin (iron saturated) and apotransferrin, polyclonal (rabbit) antiserum to human spleen ferritin and nonimmune rabbit serum were obtained from Sigma Chemical Company.\nRestriction fragments and oligonucleotides. The 5′ region of the human β-globin gene (from −610 to +20), previously cloned in pSV2CAT, was cut into three fragments by sequential digestions with Hind III and Rsa I. The three fragments, electroeluted from agarose (Maniatis, T., Fritsch, E. F. & Sambrook, J. (1989) Molecular Cloning: A Laboratory Manual (Cold Spring Harbor Laboratory, Cold Spring Harbor, N.Y.), were 416 bp (−638/−223), 147 bp (−127/+20, containing the proximal promoter region), and 95 bp (the Rsa fragment, −222/−128, containing mainly distal promoter sequences). The three fragments were phenol/chloroform treated, dephosphorylated, and end-labelled with 32-P as described (Maniatis, T., Fritsch, E. F. & Sambrook, J. (1989) Molecular Cloning: A Laboratory Manual (Cold Spring Harbor Laboratory, Cold Spring Harbor, N.Y.); Kurien, B. T., Scofield, R. H., & Broyles, R. H. (1997) Anal Biochem 245, 123-126). […]"}}, "data": [{"compound": "wt: double-stranded wildtype −164/−128 β-globin promoter oligonucleotide, SEQ ID NO: 1 (AACTCCTAAGCCAGTGCCAGAAGAGCCAAGGACAGGT; complementary strand not cited, chemistry not fully specified; listed as Homo sapiens)", "values": [{"measurement": "excess of unlabeled oligonucleotide needed for significant competition with labeled wt sequence", "setting": "[1]", "result": 50, "unit": "fold excess"}]}, {"compound": "mutant no. 4: double-stranded −164/−128 oligonucleotide mutated in the −153/−148 CAGTGC sequence, SEQ ID NO: 5 (AACTCCTAAGCAAAAAACAGAAGAGCCAAGGACAGGT; double-stranded competitor oligonucleotide, further chemistry not given here)", "values": [{"measurement": "concentration required for 50% inhibition of binding of labeled probe, relative to wt sequence", "setting": "[1]; FIG. 4D", "result": 20, "unit": "fold"}, {"measurement": "excess of unlabeled oligonucleotide needed for significant competition with labeled wt sequence", "setting": "[1]", "result": "1,000 fold excess"}]}, {"compound": "NC(=O)NO", "note": "[Hydroxyurea]", "values": [{"measurement": "patients on whom the agent has no effect", "setting": "acute sickle-cell crises", "result": 25, "unit": "%"}]}, {"compound": "CC1=CC(=O)CC(C)(C)C1(O)/C=C/C(C)=C\\C(=O)O", "note": "(centres unmarked) [abscissic acid]", "values": [{"measurement": "ferritin-H expression in NT-2 cells", "setting": "[2]", "result": "activated ferritin-H expression"}, {"measurement": "HbS-to-HbF hemoglobin switch", "setting": "[3]; administered day 1 of phase II culture with rhEpo, HPLC, observed 23 days to 4 weeks after administration", "result": "total switch"}, {"measurement": "cellular distribution of HbF production", "setting": "[3]; immuno-HbF fluorescence", "result": "pancellular"}]}, {"compound": "transferrin: human transferrin, another iron-binding protein, Sigma", "values": [{"measurement": "binding to −222/−128 distal promoter fragment", "setting": "[4]", "result": "did not bind"}]}]}
